inhibition, CC50 and inhibition in vivo data for 4 molecules are collected here from ChEMBL document CHEMBL4251574, “Design, synthesis, and biological evaluation of new 1,2,3-triazolo-2'-deoxy-2'-fluoro- 4'-azido nucleoside derivatives as potent anti-HBV agents” (Eur J Med Chem, 2018).

Holding throughout (type): functional
Assay [1] has as its system Hepatitis B virus. The experiment in a line: Antiviral activity against Hepatitis B virus infected in human HepG2.2.15 cells assessed as inhibition of HBeAg secretion at 5 uM after 9 days by ELISA relative to control. The conditions noted are these: HepG2.2.15, 216 h.
Assay [2] relates to Hepatitis B virus. The experiment in a line: Antiviral activity against Hepatitis B virus infected in human HepG2.2.15 cells assessed as inhibition of HBsAg secretion at 5 uM after 9 days by ELISA relative to control. To be noted: HepG2.2.15, 216 h.
The test system of assay [3] is HepG2 2.2.15. The experiment in a line: Cytotoxicity against human HepG2.2.15 cells after 9 days by MTT assay. To be noted: HepG2 2.2.15, 216 h.
The test system of assay [4] is Hepatitis B virus. The experiment in a line: Antiviral activity against Hepatitis B virus infected in human HepG2.2.15 cells assessed as inhibition of intracellular HBV DNA level at 0.2 uM measured on day 9 by FQ-PCR analysis. The conditions noted are these: HepG2.2.15, 216 h.
Assay [5] has as its system Hepatitis B virus. In words: Antiviral activity against Hepatitis B virus infected in human HepG2.2.15 cells assessed as inhibition of intracellular HBV DNA level at 1 uM measured on day 9 by FQ-PCR analysis. To be noted: HepG2.2.15, 216 h.
Assay [6] relates to Hepatitis B virus. In words: Antiviral activity against Hepatitis B virus infected in human HepG2.2.15 cells assessed as inhibition of intracellular HBV DNA level at 5 uM measured on day 9 by FQ-PCR analysis. To be noted: HepG2.2.15, 216 h.
The test system of assay [7] is Hepatitis B virus. The experiment in a line: Antiviral activity against Hepatitis B virus harboring rtV173L/L180M/M204V mutant infected in HepGRL1 cells assessed as inhibition of intracellular HBV DNA level at 0.2 uM measured on day 9 by FQ-PCR analysis relative to control. To be noted: 216 h.
The subject of assay [8] is Hepatitis B virus. In words: Antiviral activity against Hepatitis B virus harboring rtV173L/L180M/M204V mutant infected in HepGRL1 cells assessed as inhibition of intracellular HBV DNA level at 1 uM measured on day 9 by FQ-PCR analysis relative to control. The conditions noted are these: 216 h.
The subject of assay [9] is Hepatitis B virus. In words: Antiviral activity against Hepatitis B virus harboring rtV173L/L180M/M204V mutant infected in HepGRL1 cells assessed as inhibition of intracellular HBV DNA level at 5 uM measured on day 9 by FQ-PCR analysis relative to control. To be noted: 216 h.
The test system of assay [10] is Hepatitis B virus. The experiment in a line: Antiviral activity against Hepatitis B virus harboring rtV173L/L180M/M204V mutant infected in HepGRL1 cells assessed as inhibition of intracellular HBV DNA level at 0.2 uM measured on day 6 by FQ-PCR analysis relative to control. To be noted: 144 h.
The test system of assay [11] is Hepatitis B virus. In words: Antiviral activity against Hepatitis B virus harboring rtV173L/L180M/M204V mutant infected in HepGRL1 cells assessed as inhibition of intracellular HBV DNA level at 1 uM measured on day 6 by FQ-PCR analysis relative to control. To be noted: 144 h.
Assay [12] concerns Hepatitis B virus. In words: Antiviral activity against Hepatitis B virus harboring rtV173L/L180M/M204V mutant infected in HepGRL1 cells assessed as inhibition of intracellular HBV DNA level at 5 uM measured on day 6 by FQ-PCR analysis relative to control. The conditions noted are these: 144 h.
The test system of assay [13] is Hepatitis B virus. In words: Antiviral activity against Hepatitis B virus infected in human HepG2.2.15 cells assessed as inhibition of intracellular HBV DNA level at 0.2 uM measured on day 6 by FQ-PCR analysis. The conditions noted are these: HepG2.2.15, 144 h.
For assay [14], the system named is Hepatitis B virus. The experiment in a line: Antiviral activity against Hepatitis B virus infected in human HepG2.2.15 cells assessed as inhibition of intracellular HBV DNA level at 1 uM measured on day 6 by FQ-PCR analysis. The conditions noted are these: HepG2.2.15, 144 h.
Assay [15] concerns Hepatitis B virus. In words: Antiviral activity against Hepatitis B virus infected in human HepG2.2.15 cells assessed as inhibition of intracellular HBV DNA level at 5 uM measured on day 6 by FQ-PCR analysis. To be noted: HepG2.2.15, 144 h.
Assay [16] concerns Duck hepatitis B virus. The experiment in a line: Antiviral activity against DHBV infected in duck assessed as inhibition of viral DNA level in serum at 0.04 mg/kg, po administered once daily measured on day 10 by SYBR Green I dye-based FQ-PCR analysis relative to control. To be noted: 240 h.
For assay [17], the system named is Duck hepatitis B virus. The experiment in a line: Antiviral activity against DHBV infected in duck assessed as inhibition of viral DNA level in serum at 0.2 mg/kg, po administered once daily measured on day 10 by SYBR Green I dye-based FQ-PCR analysis relative to control. To be noted: 240 h.
Assay [18] deals with Duck hepatitis B virus. In words: Antiviral activity against DHBV infected in duck assessed as inhibition of viral DNA level in serum at 1 mg/kg, po administered once daily measured on day 10 by SYBR Green I dye-based FQ-PCR analysis relative to control. The conditions noted are these: 240 h.
The subject of assay [19] is Duck hepatitis B virus. The experiment in a line: Antiviral activity against DHBV infected in duck assessed as inhibition of viral DNA level in serum at 0.04 mg/kg, po administered once daily measured on day 15 by SYBR Green I dye-based FQ-PCR analysis relative to control. To be noted: 360 h.
Assay [20] deals with Duck hepatitis B virus. The experiment in a line: Antiviral activity against DHBV infected in duck assessed as inhibition of viral DNA level in serum at 0.2 mg/kg, po administered once daily measured on day 15 by SYBR Green I dye-based FQ-PCR analysis relative to control. The conditions noted are these: 360 h.
The subject of assay [21] is Duck hepatitis B virus. In words: Antiviral activity against DHBV infected in duck assessed as inhibition of viral DNA level in serum at 1 mg/kg, po administered once daily measured on day 15 by SYBR Green I dye-based FQ-PCR analysis relative to control. The conditions noted are these: 360 h.
The subject of assay [22] is Duck hepatitis B virus. In words: Antiviral activity against DHBV infected in duck assessed as inhibition of viral DNA level in liver at 0.04 mg/kg, po administered once daily measured on day 10 by SYBR Green I dye-based FQ-PCR analysis relative to control. The conditions noted are these: 240 h.
The subject of assay [23] is Duck hepatitis B virus. In words: Antiviral activity against DHBV infected in duck assessed as inhibition of viral DNA level in liver at 0.2 mg/kg, po administered once daily measured on day 10 by SYBR Green I dye-based FQ-PCR analysis relative to control. The conditions noted are these: 240 h.
The subject of assay [24] is Duck hepatitis B virus. The experiment in a line: Antiviral activity against DHBV infected in duck assessed as inhibition of viral DNA level in liver at 1 mg/kg, po administered once daily measured on day 10 by SYBR Green I dye-based FQ-PCR analysis relative to control. To be noted: 240 h.
Assay [25] concerns Duck hepatitis B virus. The experiment in a line: Antiviral activity against DHBV infected in duck assessed as inhibition of viral DNA level in liver at 0.04 mg/kg, po administered once daily measured on day 15 by SYBR Green I dye-based FQ-PCR analysis relative to control. To be noted: 360 h.
Assay [26] deals with Duck hepatitis B virus. In words: Antiviral activity against DHBV infected in duck assessed as inhibition of viral DNA level in liver at 0.2 mg/kg, po administered once daily measured on day 15 by SYBR Green I dye-based FQ-PCR analysis relative to control. To be noted: 360 h.
Assay [27] has as its system Duck hepatitis B virus. In words: Antiviral activity against DHBV infected in duck assessed as inhibition of viral DNA level in liver at 1 mg/kg, po administered once daily measured on day 15 by SYBR Green I dye-based FQ-PCR analysis relative to control. To be noted: 360 h.

On to `[N-]=[N+]=N[C@]1(CO)O[C@@H](n2cc(-c3nnn[nH]3)nn2)[C@@H](F)[C@@H]1O`, for which the inhibition at 5 µM is 20% in assay [1] and 40% in assay [2]. For the same molecule, the CC50 in [3] is greater than 1000 µM.
Take `[N-]=[N+]=N[C@]1(CO)O[C@@H](n2cc(C(N)=O)nn2)[C@@H](F)[C@@H]1O`: the inhibition at 5 µM amounted to 21.9% in assay [1]; 45.3% in assay [2]; 57.1% in assay [6]; 64.1% in assay [9]; 49.2% in assay [12]; 42.6% in assay [15]. Moreover, in assay [3], the 50% cytotoxic concentration (CC50) was 526 µM. In addition, the inhibition at 0.2 µM was determined as 34.7% in [4], 28.2% in assay [7], 15.8% in assay [10] and 13.1% in assay [13]. Further, the inhibition at 1 µM in [5] is 51%; in assay [8], 52.4%; in [11], 27.5%; in assay [14] it was 39.3%. Further, the inhibition in vivo at 0.04 mg/kg stood at 8.7% in assay [16], 35.7% in assay [19], 7.1% in [22] and 12.2% in assay [25]. Further, the inhibition in vivo at 0.2 mg/kg in assay [17] stood at 26.1%; in assay [20], 39.3%; in [23], 21.4%; in assay [26] it was 24.4%. Besides, the inhibition in vivo at 1 mg/kg worked out at 56.5% in assay [18], 67.9% in [21], 50% in assay [24] and 53.7% in [27].
Turning to `CNC(=N)c1cn([C@@H]2O[C@@](CO)(N=[N+]=[N-])[C@@H](O)[C@@H]2F)nn1`, the inhibition at 5 µM in assay [1] was 13.8%; in assay [2], 22.2%. This molecule also displayed a CC50 in [3] greater than 1000 µM.
Consider `COC(=O)c1cn([C@@H]2O[C@@](CO)(N=[N+]=[N-])[C@@H](O)[C@@H]2F)nn1`, for which the values for the inhibition at 5 µM in assay [1] and in assay [2] were 12.3% and 22%, respectively. Further, the midpoint of cytotoxicity in [3], the CC50, lay at 115 µM.
